Here are results for one molecule from patent EP4050002A1, “ANTI-PROLIFERATIVE AGENTS” (First Health Pharmaceuticals B.V., priority 2021, dated 2022).

One assay relates to MDAMB231 cell line. Put plainly: Cytotoxicity, cell count method. It is filed as cell-based, human. The following applies: Homo sapiens, MDA-MB-231, MDAMB231, 72 hours of incubation. The protocol: The anti-tumor activity of the compounds of the present invention was evaluated as the effect on the proliferation and survival of tumor cells by counting the number of living cells in presence or absence of the compounds ("cell count method"), and as the effect on the viability and metabolic activity of the cells, by using particular substrates that are converted by cellular enzymes into coloured or luminescent products, proportionally with metabolic activity and state of the cell, such as the MTS tetrazolium compound ("MTS method") or luciferin ("ATP-based method") respectively.
Cells were seeded at 3 to 5 x 10^4 cells/well density depending on cell lines and maintained at 37°C in 5% CO2. After 24 hours cells were treated with ascending concentrations of the investigational compounds and the reference (5-fluoro-Uracyl) in a range from 0 to 100 µM. Compounds were dissolved in DMSO which final concentration in each well was 0.5% v:v. After 72 h of incubation with compounds, the cells were detached with trypsin and re-suspended in 1 ml of complete medium; the cell number was evaluated using a Z2 Coulter Counter ("cell count method") (Attallah and Johnson, A simple highly sensitive methods for the determination of cell viability using an electronic particle analyzer, Coulter counter J. Immunol. Methods. 1981, 41, 155; Leonardi et al., Activated kinase screening identifies the IKBKE oncogene as a positive regulator of autophagy. Autophagy, 2019, 15, 312). Alternatively, after the 72 hours of incubation with compounds, the MTS solution (CellTiter 96® AQueous One Solution Cell Proliferation Assay) is added to each well and absorbance at 490 nm wavelength is read after 2 hours of incubation ("MTS method"). Results in Tables 8-13, 17, 18 were obtained with the cell count method. Results in Tables 14-15 were obtained with the MTS method. Results in Table 16 were obtained with ATP-based method.

The target in another assay is DDX3X (Homo sapiens, UniProt O00571). The assay is described as follows: nanoDSF enzymatic binding (melting temperature shift). Further details: human DDX3X (residues 132-607, UniProtID: 000571, produced by Proteros GmbH); purchased Proteros GmbH. The following applies: Compound 100 µM, DDX3 4 µM. From the text: The binding of compounds to DDX3X have been assessed by nanoDSF analysis (NanoTemper Technologies GmbH, Flößergasse 4, 81369 München, Germany). NanoDSF technology is a Differential Scanning Fluorimetry method which measures the protein stability with high resolution without the need of a dye. In particular it measures the changes of the intrinsic tryptophan fluorescence at 330 and 350 nm and it is used to determine the melting temperature of a protein. In the folded state the residues of tryptophan are buried in the hydrophobic core. During denaturation the residues are more exposed and the fluorescence changes in both intensity and wavelength. In a typical experiment, the protein is mixed with the ligand in the reaction buffer and transferred into a capillary. The fluorescence is monitored over temperature gradient between 20 and 95°C with an increment of 2.5°C per minute. The interaction of the ligand to the folded state of the protein shifts the protein melting temperature (Tm) at higher or lower temperature.
DDX3X, sequence (O00571 132-607): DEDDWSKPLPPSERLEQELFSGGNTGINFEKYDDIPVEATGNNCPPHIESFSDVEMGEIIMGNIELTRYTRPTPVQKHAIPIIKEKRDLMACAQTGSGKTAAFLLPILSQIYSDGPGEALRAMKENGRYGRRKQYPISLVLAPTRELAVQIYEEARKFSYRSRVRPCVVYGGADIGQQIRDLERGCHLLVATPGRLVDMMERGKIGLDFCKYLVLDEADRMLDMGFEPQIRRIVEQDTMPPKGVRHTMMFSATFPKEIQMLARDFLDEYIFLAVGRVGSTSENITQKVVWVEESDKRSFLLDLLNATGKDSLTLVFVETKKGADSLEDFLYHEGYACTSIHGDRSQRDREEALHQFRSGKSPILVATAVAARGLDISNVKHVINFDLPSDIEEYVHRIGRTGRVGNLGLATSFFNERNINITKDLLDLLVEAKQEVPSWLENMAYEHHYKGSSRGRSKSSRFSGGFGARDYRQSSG
Experimental conditions: the experiments were conducted with the device Prometheus NT.48 (NanoTemper Technologies GmbH), the enzyme used was the human DDX3X (residues 132-607, UniProtID: 000571, produced by Proteros GmbH). The assessed compounds were dissolved in pure DMSO adequate to obtain a concentration of compound of 100µM and DMSO 1% (v:v) in final solution. Reaction buffer for DDX3X was 20 mM HEPES, pH 7.5, 0.5 mM TCEP, 500 mM NaCl, 10% (v:v) Glycerin, with a final reaction volume of 10 µL and a final DMSO concentration of 1% (v:v). The reaction was performed in "High sensitivity capillaries" in the range of 20-95°C with a heating rate of 2.5°C/min, with an incubation time of 60 minutes.
• 1) Add appropriate volume of target enzyme in reaction buffer • 2) Add compound(s) in 100% DMSO (1% final DMSO conc.) • 3) Fill the capillary • 4) Measure fluorescence
The assay development was performed with DDX3X protein alone showing a Tm at 54.6 °C.
Binding of compound 5 was assessed with the NanoDSF technique, evaluating the association of the aforementioned compound with APO DDX3X and in presence of a competitor for the ATP binding site, Adenylyl imidodiphosphate (AMPPNP) to assess competition of compound 5 for the DDX3X ATP binding site. Table 6. Final protein and compound concentrations in the various assay setup:
All the measures were performed in triplicate and the average (Mean Tm) and standard deviation (SD) were calculated with the following equations: [formula] and SD = sqrt((∑((Tm−Mean Tm))^2)/(n−1)) [formula]
A change of 5xSD from the 1% DMSO control mean is considered to be a significant Tm change. Test of DDX3X with 1% DMSO was performed to obtain the reference melting temperature of the protein alone. Compounds are considered as binders if the Tm shifts by >= 5 times the standard deviation of the control (protein in the absence of compound). Table 7. DDX3X melting temperatures (Tm) at various experimental conditions

As a reminder, the IC50 is the concentration at which inhibition is half-maximal. A higher IC50 goes with weaker potency. Molecule `CCCCc1cn(-c2ccc(-c3nnc(-c4ccccc4C(F)(F)F)o3)cc2)nn1` [Compound 5] came in with an IC50 in the assay on MDAMB231 cell line of 580 nM. Further, at DDX3X (AMPPNP 100 µM), the “Comment (Tm shift)” value is given as “significant Tm shift to higher Tm, compound interference” and the “Mean Tm” value stood at 56.8 °C. Also, at DDX3X (no AMPPNP), the “Comment (Tm shift)” value is “significant Tm shift to higher Tm, compound interference” and the “Mean Tm” value amounted to 56.9 °C.
